With `CCNC(=O)c1cc(Oc2ccc(NC(=O)Nc3ccc(Br)c(C(F)(F)F)c3)cc2)ccn1` [Entry 88, N-[4-bromo-3-(trifluoromethyl)phenyl]({4-[2-(N-ethylcarbamoyl)(4-pyridyloxy)]phenyl}amino)carboxamide], the melting point – broadly, the temperature, or range, at which the solid turns liquid – was 183 to 184 °C.
As for `COc1ccc(C(F)(F)F)cc1NC(=O)Nc1ccc(Oc2ccnc(C(N)=O)c2)cc1` [Entry 14, 4-[4-({N-[2-methoxy-5-(trifluoromethyl)phenyl]carbamoyl}amino)phenoxy]pyridine-2-carboxamide], the figure is 114 to 117 °C.
As for `CNC(=O)c1cc(Oc2ccc(NC(=O)Nc3cc(C(F)(F)F)ccc3OC)cc2Cl)ccn1` [Entry 20, ({3-chloro-4-[2-(N-methylcarbamoyl)(4-pyridyloxy)]phenyl}amino)-N-[2-methoxy-5-(trifluoromethyl)phenyl]carboxamide], the figure is 214 to 216 °C; as for `CCNC(=O)c1cc(Oc2ccc(NC(=O)Nc3cc(C(F)(F)F)ccc3OC)cc2)ccn1` [Entry 19, ({4-[2-(N-ethylcarbamoyl)(4-pyridyloxy)]phenyl}amino)-N-[2-methoxy-5-(trifluoromethyl)phenyl]carboxamide], 194 to 196 °C.
As for `CNC(=O)c1cc(Oc2ccc(NC(=O)Nc3ccc(Cl)c(C(F)(F)F)c3)c(Cl)c2)ccn1` [Entry 49, {4-[3-chloro-4-({[4-chloro-3-(trifluoromethyl)phenyl]amino}carbonylamino)phenoxy](2-pyridyl)}-N-methylcarboxamide], the figure is 147 to 151 °C; as for `CNC(=O)c1cc(Oc2ccc(NC(=O)Nc3ccc(Br)c(C(F)(F)F)c3)cc2Cl)ccn1` [Entry 87, {4-[4-({[4-bromo-3-(trifluoromethyl)phenyl]amino}carbonylamino)-2-chlorophenoxy](2-pyridyl)}-N-methylcarboxamide], 217 to 219 °C.
The compound `CNC(=O)c1cc(Oc2ccc(NC(=O)Nc3cc(C(F)(F)F)ccc3OC)c(Cl)c2)ccn1` [Entry 17, ({2-chloro-4-[2-(N-methylcarbamoyl)(4-pyridyloxy)]phenyl}amino)-N-[2-methoxy-5-(trifluoromethyl)phenyl]carboxamide] yielded a melting point of 187 to 188 °C.
As for `CNC(=O)c1cc(Oc2ccc(NC(=O)Nc3cc(C(F)(F)F)c(Cl)cc3OC)cc2)ccn1` [Entry 95, N-[4-chloro-2-methoxy-5-(trifluoromethyl)phenyl]({4-[2-(N-methylcarbamoyl)(4-pyridyloxy)]phenyl}amino)carboxamide], the figure is 140 to 144 °C; as for `CNC(=O)c1cc(Sc2ccc(NC(=O)Nc3cc(C(F)(F)F)ccc3OC)cc2)ccn1` [Entry 27, N-[2-methoxy-5-(trifluoromethyl)phenyl]({4-[2-(N-methylcarbamoyl)(4-pyridylthio)]phenyl}amino)carboxamide], 218 to 219 °C; as for `CCNC(=O)c1cc(Oc2ccc(NC(=O)Nc3ccc(Cl)c(C(F)(F)F)c3)cc2)ccn1` [Entry 51, N-[4-chloro-3-(trifluoromethyl)phenyl]({4-[2-(N-ethylcarbamoyl)(4-pyridyloxy)]phenyl}amino)carboxamide], 187 to 189 °C.
As for `CNC(=O)c1cc(Oc2ccc(NC(=O)Nc3cc(C(F)(F)F)ccc3OC)c(C)c2)ccn1` [Entry 16, {4-[4-({N-[2-methoxy-5-(trifluoromethyl)phenyl]carbamoyl}amino)-3-methylphenoxy](2-pyridyl)}-N-methylcarboxamide], the figure is 210 to 213 °C; as for `CNC(=O)c1cc(Oc2ccc(NC(=O)Nc3cc(C(F)(F)F)c(Cl)cc3OC)c(Cl)c2)ccn1` [Entry 96, N-[4-chloro-2-methoxy-5-(trifluoromethyl)phenyl]({2-chloro-4-[2-(N-methylcarbamoyl)(4-pyridyloxy)]phenyl}amino)carboxamide], 244 to 245 °C; as for `CNC(=O)c1cc(Oc2ccc(NC(=O)Nc3cc(C(F)(F)F)c(Cl)cc3OC)cc2Cl)ccn1` [Entry 97, N-[4-chloro-2-methoxy-5-(trifluoromethyl)phenyl]({3-chloro-4-[2-(N-methylcarbamoyl)(4-pyridyloxy)]phenyl}amino)carboxamide], 220 to 221 °C.
The result for `CCNC(=O)c1cc(Oc2ccc(NC(=O)Nc3cc(C(F)(F)F)c(Cl)cc3OC)cc2)ccn1` [Entry 99, N-[4-chloro-2-methoxy-5-(trifluoromethyl)phenyl]({4-[2-(N-ethylcarbamoyl)(4-pyridyloxy)]phenyl}amino)carboxamide] reads 180 to 181 °C.

Values taken from patent US20090068146A1, “DIARYL UREAS AND COMBINATIONS” (priority 2005, published 2009).
